*1 amine or outer side, *2 acyl side, *3 side chain or, on linkers, in order; H or OH if unused. Where a SMILES comes first, the peptide text is derived from it. Bridges are numbered along the chain shown (N, C = ends). Roman numbers before positions name the chains, in order. [ ]: non-standard residue; d: D form. Actinocin(1to9) = Cc1c2oc3c(C)ccc(C(=O)[*:2])c3nc-2c(C(=O)[*:1])c(N)c1=O; NMeV = CN[C@H](C(=O)O)C(C)C; Sar = CNCC(=O)O
Experiments:
[1] = target: T1, 5-hydroxytryptamine receptor 2C (Homo sapiens, UniProt P28335); test: DRUGMATRIX: Serotonin (5-Hydroxytryptamine) 5-HT2C radioligand binding (ligand: [3H] Mesulergine); assay type: cell membranes, CHO-K1, Membrane; settings: cho-k1; Not Active = under 50% inhibition at 10 µM
T1 sequence (P28335 whole entry): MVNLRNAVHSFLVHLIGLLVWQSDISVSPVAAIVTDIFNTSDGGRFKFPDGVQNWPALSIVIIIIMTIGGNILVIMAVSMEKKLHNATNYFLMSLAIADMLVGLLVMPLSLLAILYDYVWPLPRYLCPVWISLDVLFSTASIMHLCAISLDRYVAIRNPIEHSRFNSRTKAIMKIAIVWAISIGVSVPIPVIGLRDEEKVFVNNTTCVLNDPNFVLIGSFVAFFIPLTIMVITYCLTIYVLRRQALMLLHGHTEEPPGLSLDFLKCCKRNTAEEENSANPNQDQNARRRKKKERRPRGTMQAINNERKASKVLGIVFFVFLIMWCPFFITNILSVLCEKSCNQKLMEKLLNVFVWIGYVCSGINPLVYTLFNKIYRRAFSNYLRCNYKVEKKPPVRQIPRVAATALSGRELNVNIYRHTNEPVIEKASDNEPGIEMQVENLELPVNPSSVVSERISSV

Cannabinoid receptor 1 = Cannabinoid receptor 1 (Homo sapiens, UniProt P21554); assay type: cell membranes, Membrane; settings: chem-1; also: in other assays of this panel Not Active means under 50% inhibition at 10 µM
[2] = target: T2, C-C chemokine receptor type 4 (Homo sapiens, UniProt P51679); assay type: cell membranes, Chem-1, Membrane; settings: chem-1; also: in other assays of this panel Not Active means under 50% inhibition at 10 µM
T2 sequence (P51679 whole entry): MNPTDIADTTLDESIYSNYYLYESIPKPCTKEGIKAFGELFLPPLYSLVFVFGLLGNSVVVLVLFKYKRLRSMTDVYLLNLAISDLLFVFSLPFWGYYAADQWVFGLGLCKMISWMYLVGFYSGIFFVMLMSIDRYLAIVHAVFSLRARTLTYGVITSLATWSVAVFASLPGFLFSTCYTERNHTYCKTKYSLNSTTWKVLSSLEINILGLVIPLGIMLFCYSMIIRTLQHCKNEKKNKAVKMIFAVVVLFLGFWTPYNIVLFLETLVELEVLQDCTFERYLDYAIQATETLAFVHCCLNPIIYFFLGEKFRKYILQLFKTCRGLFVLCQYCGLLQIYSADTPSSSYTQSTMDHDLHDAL

[3] = DRUGMATRIX: GABAA, Flunitrazepam, Central radioligand binding (ligand: [3H] Flunitrazepam); assay type: cell membranes, Rattus norvegicus, Wistar, Brain, Membrane; settings: Not Active = under 50% inhibition at 10 µM
[4] = target: T3, Muscarinic acetylcholine receptor M5 (Homo sapiens, UniProt P08912); assay type: cell membranes, CHO-K1, Membrane; settings: cho-k1; also: in other assays of this panel Not Active means under 50% inhibition at 10 µM
T3 sequence (P08912 whole entry): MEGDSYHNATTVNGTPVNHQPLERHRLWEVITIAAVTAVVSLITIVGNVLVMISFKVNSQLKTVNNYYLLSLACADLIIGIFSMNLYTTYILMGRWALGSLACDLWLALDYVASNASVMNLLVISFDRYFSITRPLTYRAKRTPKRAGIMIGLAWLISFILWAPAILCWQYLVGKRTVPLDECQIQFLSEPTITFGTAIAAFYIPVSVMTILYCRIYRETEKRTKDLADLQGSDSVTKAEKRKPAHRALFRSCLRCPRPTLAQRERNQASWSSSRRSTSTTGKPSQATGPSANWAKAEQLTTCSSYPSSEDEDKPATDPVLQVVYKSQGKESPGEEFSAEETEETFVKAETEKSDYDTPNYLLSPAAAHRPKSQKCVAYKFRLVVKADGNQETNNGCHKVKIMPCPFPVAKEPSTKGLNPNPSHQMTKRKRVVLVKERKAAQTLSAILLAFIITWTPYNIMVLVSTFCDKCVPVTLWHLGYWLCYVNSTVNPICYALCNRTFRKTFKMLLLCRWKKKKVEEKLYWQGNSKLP

[5] = target: Tyrosine-protein kinase Fyn (Homo sapiens, UniProt P06241); test: biochemical; assay type: cell-based, Insect cells; settings: insect cells;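 also: enzymatic inhibition of Fyn kinase activity measured with Poly(Glu:Tyr) as the phosphorylation substrate; in other assays of this panel Not Active means under 50% inhibition at 10 µM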
Tyrosine-protein kinase Fyn, sequence (P06241 whole entry): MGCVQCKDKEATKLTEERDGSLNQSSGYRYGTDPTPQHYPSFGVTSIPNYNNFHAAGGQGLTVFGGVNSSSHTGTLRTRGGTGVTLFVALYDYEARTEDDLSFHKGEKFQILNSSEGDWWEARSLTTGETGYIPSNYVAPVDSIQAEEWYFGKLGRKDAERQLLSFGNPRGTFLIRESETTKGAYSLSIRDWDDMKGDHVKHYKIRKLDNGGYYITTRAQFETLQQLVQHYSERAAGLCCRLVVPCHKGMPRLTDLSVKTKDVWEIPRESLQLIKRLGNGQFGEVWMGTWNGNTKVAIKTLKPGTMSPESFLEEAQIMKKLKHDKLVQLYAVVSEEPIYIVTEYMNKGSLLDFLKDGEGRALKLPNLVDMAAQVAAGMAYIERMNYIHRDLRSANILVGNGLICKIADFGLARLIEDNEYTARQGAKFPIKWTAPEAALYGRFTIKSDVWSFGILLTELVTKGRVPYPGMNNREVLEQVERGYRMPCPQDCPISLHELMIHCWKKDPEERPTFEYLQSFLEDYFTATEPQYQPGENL

Cannabinoid receptor 1, sequence (P21554 whole entry): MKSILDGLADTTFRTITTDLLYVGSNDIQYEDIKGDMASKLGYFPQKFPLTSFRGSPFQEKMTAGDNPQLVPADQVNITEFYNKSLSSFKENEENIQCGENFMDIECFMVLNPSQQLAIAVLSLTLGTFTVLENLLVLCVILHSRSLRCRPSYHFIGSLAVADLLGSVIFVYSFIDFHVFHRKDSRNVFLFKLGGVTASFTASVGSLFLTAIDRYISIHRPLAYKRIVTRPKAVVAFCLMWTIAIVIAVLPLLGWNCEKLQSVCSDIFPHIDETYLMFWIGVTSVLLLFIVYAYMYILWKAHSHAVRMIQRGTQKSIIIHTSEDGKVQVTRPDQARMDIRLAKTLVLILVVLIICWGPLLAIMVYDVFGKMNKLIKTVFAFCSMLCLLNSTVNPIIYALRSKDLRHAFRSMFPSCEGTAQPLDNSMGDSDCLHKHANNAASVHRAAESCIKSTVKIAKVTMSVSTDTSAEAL

Cc1c2oc3c(C)ccc(C(=O)N[C@@H]4C(=O)N[C@H](C(C)C)C(=O)N5CCC[C@H]5C(=O)N(C)CC(=O)N(C)[C@@H](C(C)C)C(=O)O[C@@H]4C)c3nc-2c(C(=O)N[C@@H]2C(=O)N[C@H](C(C)C)C(=O)N3CCC[C@H]3C(=O)N(C)CC(=O)N(C)[C@@H](C(C)C)C(=O)O[C@@H]2C)c(N)c1=O [DACTINOMYCIN] (I: T[dV]P[Sar][NMeV] / II: T[dV]P[Sar][NMeV]; ester I:1-I:C, II:1-II:C; linker I:N-II:N via Actinocin(1to9))
Not Active: IC50 [1] | IC50 (Cannabinoid receptor 1) | IC50 [2] | IC50 [3] | Ki [3] | IC50 [4] | IC50 [5]

Nc1nc(N)nc(-c2cc(Cl)ccc2Cl)n1.O=C(O)/C=C\C(=O)O [IRSOGLADINE MALEATE]
Not Active: IC50 [1] | IC50 (Cannabinoid receptor 1) | IC50 [2] | IC50 [3] | Ki [3] | IC50 [4] | IC50 [5]

Nc1ncn([C@@H]2O[C@H](CO)[C@@H](O)[C@H]2O)c(=O)n1 [AZACITIDINE]
Not Active: IC50 [1] | IC50 (Cannabinoid receptor 1) | IC50 [2] | IC50 [3] | Ki [3] | IC50 [4] | IC50 [5]

CC(NC(C)(C)C)C(=O)c1cccc(Cl)c1 (stereo not drawn) [BUPROPION]
Not Active: IC50 [1] | IC50 (Cannabinoid receptor 1) | IC50 [2] | IC50 [3] | Ki [3] | IC50 [4] | IC50 [5]

Cc1cc(C2CCCCC2)n(O)c(=O)c1 [CICLOPIROX]
Not Active: IC50 [1] | IC50 (Cannabinoid receptor 1) | IC50 [2] | IC50 [3] | Ki [3] | IC50 [4] | IC50 [5]

CC1(C)S[C@@H]2[C@H](NC(=O)Cc3ccccc3)C(=O)N2[C@H]1C(=O)O [PENICILLIN G]
Not Active: IC50 [1] | IC50 (Cannabinoid receptor 1) | IC50 [2] | IC50 [3] | Ki [3] | IC50 [4] | IC50 [5]

CCCCc1nc(Cl)c(CO)n1Cc1ccc(-c2ccccc2-c2nnn[nH]2)cc1 [LOSARTAN]
Not Active: IC50 [1] | IC50 (Cannabinoid receptor 1) | IC50 [2] | IC50 [3] | Ki [3] | IC50 [4] | IC50 [5]

CCCCN1CCCC[C@H]1C(=O)Nc1c(C)cccc1C [LEVOBUPIVACAINE]
Not Active: IC50 [1] | IC50 (Cannabinoid receptor 1) | IC50 [2] | IC50 [3] | Ki [3] | IC50 [4] | IC50 [5]

Cc1onc(O)c1CC(N)C(=O)O (racemic) [(R,S)-AMPA]
Not Active: IC50 [1] | IC50 (Cannabinoid receptor 1) | IC50 [2] | IC50 [3] | Ki [3] | IC50 [4] | IC50 [5]

CC1CC(OC(=O)C(O)c2ccccc2)CC(C)(C)C1 (stereo not drawn) [CYCLANDELATE]
Not Active: IC50 [1] | IC50 (Cannabinoid receptor 1) | IC50 [2] | IC50 [3] | Ki [3] | IC50 [4] | IC50 [5]

COCCc1ccc(OCC(O)CNC(C)C)cc1 (stereo not drawn) [METOPROLOL]
Not Active: IC50 [1] | IC50 (Cannabinoid receptor 1) | IC50 [2] | IC50 [3] | Ki [3] | IC50 [4] | IC50 [5]

Cc1ccc(-c2cc(C(F)(F)F)nn2-c2ccc(S(N)(=O)=O)cc2)cc1 [CELECOXIB]
Not Active: IC50 [1] | IC50 (Cannabinoid receptor 1) | IC50 [2] | IC50 [3] | Ki [3] | IC50 [4] | IC50 [5]

c1ccc(Nc2ccc(Nc3ccccc3)cc2)cc1
Not Active: IC50 [1] | IC50 (Cannabinoid receptor 1) | IC50 [2] | IC50 [3] | Ki [3] | IC50 [4] | IC50 [5]

Cc1onc(-c2ccccc2Cl)c1C(=O)N[C@@H]1C(=O)N2[C@@H]1SC(C)(C)[C@@H]2C(=O)O [CLOXACILLIN]
Not Active: IC50 [1] | IC50 (Cannabinoid receptor 1) | IC50 [2] | IC50 [3] | Ki [3] | IC50 [4] | IC50 [5]

CC1=C2C(=CO[C@H](C)[C@H]2C)C(O)=C(C(=O)O)C1=O [CITRININ]
Not Active: IC50 [1] | IC50 (Cannabinoid receptor 1) | IC50 [2] | IC50 [3] | Ki [3] | IC50 [4] | IC50 [5]

CC(C)C(=O)Nc1ccc([N+](=O)[O-])c(C(F)(F)F)c1 [FLUTAMIDE]
Not Active: IC50 [1] | IC50 (Cannabinoid receptor 1) | IC50 [2] | IC50 [3] | Ki [3] | IC50 [4] | IC50 [5]

CC[C@@]1(O)C[C@H](O[C@H]2C[C@H](N(C)C)[C@H](O[C@H]3C[C@H](O)[C@H](O[C@H]4CCC(=O)[C@H](C)O4)[C@H](C)O3)[C@H](C)O2)c2c(cc3c(c2O)C(=O)c2c(O)cccc2C3=O)[C@H]1C(=O)OC [ACLARUBICIN]
Not Active: IC50 [1] | IC50 (Cannabinoid receptor 1) | IC50 [2] | IC50 [3] | Ki [3] | IC50 [4] | IC50 [5]

Nc1nc2c(ncn2CCC(CO)CO)c(=O)[nH]1 [PENCICLOVIR]
Not Active: IC50 [1] | IC50 (Cannabinoid receptor 1) | IC50 [2] | IC50 [3] | Ki [3] | IC50 [4] | IC50 [5]

O=c1oc2ccccc2c(O)c1Cc1c(O)c2ccccc2oc1=O [DICUMAROL]
Not Active: IC50 [1] | IC50 (Cannabinoid receptor 1) | IC50 [2] | IC50 [3] | Ki [3] | IC50 [4] | IC50 [5]
